# Measurements as given in US20110233146A1, “S[…] CONTROL COMPOSITION, SYSTEMS, AND RELATED METHODS THEREFOR” (Siemens Water Technologies Corp., priority 2009, published 2011).
# Experiments:
# [1] = test system: atmospheric hydrogen sulfide; experiment: Sewerage system field trial (Example 1): atmospheric hydrogen sulfide logged at lift stations LS481 and LS480
# Text: The collection system consisted of four serial master lift stations LS 479, LS482, LS 481, and LS 480 feeding wastewater to a central treatment plant WWTP as depicted in FIG. 2.
# Calcium hydroxide (with or without anthraquinone) feed rate was dependent mainly on the wastewater flow rate.
# Data collected included atmospheric hydrogen sulfide collected every five minutes with monitor/loggers within the monitoring manhole at lift station LS481 and inside the lift station LS480, and dissolved sulfide grab samples at each as well as treatment plant WWTP. Nitrate residual and pH data were also collected. […] The chemical feed line was disposed to feed into the manhole about 50 feet upstream of lift station LS482.
# Over the next few weeks the controller pH set point was adjusted until the desired atmospheric pH was attained downstream at lift station LS481.
# Two batches of a formulation of calcium hydroxide supplemented with anthraquinone were fed to determine the effectiveness of the combination for controlling odor.
# The primary monitoring point for atmospheric hydrogen sulfide was at lift station LS481. The primary monitoring point for dissolved sulfide was the plant influent. During the period from June 23 to July 14 background data was gathered (FIG. 4) to reflect the system operating on nitrate salt feed at all four lift stations.
# The data was tabulated for every day on which no calcium hydroxide was fed and that nitrate salt was fed at all four lift stations.
# [2] = test system: atmospheric hydrogen sulfide; experiment: Example 2: slug dose of anthraquinone alone, all other chemical feed off at LS482, atmospheric hydrogen sulfide by OdaLog monitor/loggers
# Experimental: In order to gather the required information, the two OdaLog® hydrogen sulfide monitor/loggers were deployed in the manhole just prior to lift station LS481 prior to 10:00 a.m. on day one. At 10:00 a.m. on day one all chemical feed was turned off at lift station LS482. At 10:00 a.m. on day two a ten gallon slug of anthraquinone (AQUIT) was added to the flow through the manhole at lift station LS482. At 10:00 a.m. on day three, regular chemical feed was resumed at lift station LS482. The OdaLog® monitor/loggers were retrieved on day six and downloaded to retrieve the atmospheric hydrogen sulfide concentrations before, during, and following the trial.
# Data was collected over a period of several days to include a full day prior to the test and a full day after the test as summarized in the graph of FIG. 7.
# The average atmospheric hydrogen sulfide concentration for the 24 hour period with no chemical additive was about 1,032 ppmv. During the following 24 hour period during which the effect of the slug dose of anthraquinone, the atmospheric hydrogen sulfide concentration averaged about 999 ppmv; the hydrogen sulfide concentration was thus reduced by about 3.2 percent.
# [3] = 10/14 to 10/17, after 10 gal anthraquinone slug on 10/13 at LS482, with calcium hydroxide slurry 258 GPD, nitrate salt solution 197 GPD
structure (smiles),measurement,setting,value
"O=C1c2ccccc2C(=O)c2ccccc21 [Anthraquinone, anthraquinone]",LS480 Avg Atm H2S,[1]; [3],305 ppmv
same,LS481 Avg Atm H2S,[1]; [3],100 ppmv
same,decrease in atmospheric hydrogen sulfide concentration at the downstream monitoring point,"[1]; anthraquinone added to the alkaline material used for pH adjustment, versus alkaline material without it",21%
same,atmospheric hydrogen sulfide downstream dropped,[1]; anthraquinone added with calcium hydroxide to the sewer upstream of the sampling point (see Table 8),37.5%
same,reduction in the hydrogen sulfide concentration at the downstream monitoring point lift station LS481,"[1]; one time slug of anthraquinone along with the calcium hydroxide feed, over the next four days",about 38%
same,average atmospheric hydrogen sulfide concentration,"[2]; 24 hour period under the effect of a ten gallon slug of anthraquinone alone, preceding 24 hours with no chemical additive about 1,032 ppmv",about 999 ppmv
same,hydrogen sulfide concentration reduced by,[2]; ten gallon slug of anthraquinone alone versus preceding 24 hours with no chemical additive,about 3.2%
